Measured values: patent publication US7642277B2, “Non-nucleoside reverse transcriptase inhibitors” (Boehringer Ingelheim International GmbH, priority 2002, dated 2010)

What was measured:
[1] = system: HIV-1 (wild type) in C8166 LTRluc cells; assay: C8166 HIV-1 luciferase assay (EC50), wild type; type: cell-based; conditions: Human immunodeficiency virus 1, C8166 HIV-1 luciferase assay (no *)
Text: (§1) C8166 HIV-1 Luciferase Assay (EC50)
(§2) Plasmid: pGL3 Basic LTR/TAR #12
Plasmid is the pGL3 Basic Vector (a promoterless luciferase expression vector from Promega catalogue #E1751) with the addition of HIV-1 H×B2 LTR sequence from nucleotide −138 to +80 (Sca1-HindIII) upstream of the luciferase gene and the gene for blasticidine resistance cloned in.
(§3) C8166 cells are a human T-lymphotrophic virus type 1 immortalized but nonexpressing line of cord blood lymphocytes and are highly permissive to HIV-1 infection. The reporter cells were made by electroporating C8166 cells with pGL3 Basic LTR/TAR and then selecting positive clones with blasticidine. The clone C8166-LTRluc #A8-F5-G7 was selected by 3 consecutive rounds of limiting dilution under blasticidine selection.
(§4) Media: Complete media consisting of: RPMI 1640+10% FBS+10^−5 M
(§5) β-mercaptoethanol+10 μg/ml gentamycin. Cultures are maintained in complete media with 5 μg/ml blasticidine, however, selection is removed for the assay.
(§6) Luciferase Assay Protocol
(§7) Serial dilutions of HIV-1 inhibitors compounds are prepared in complete media from 10 mM DMSO stock solutions. Eleven serial dilutions of 2.5× are made at 8× desired final concentration in a 1 ml deep well titer plate (96 wells). The 12th well contains complete media with no inhibitor and serves as the positive control. All samples contain the same concentration of DMSO (≦0.1% DMSO). A 25 μl aliquot of inhibitor is added, to triplicate wells, of a 96 well tissue culture treated clear view black microtiter plate (Corning Costar catalogue # 3904). The last row is reserved for uninfected C8166 LTRluc cells to serve as the background blank control and the first row is media alone.
(§8) Count C8166 LTRluc cells and place in a minimal volume of complete RPMI 1640 in a tissue culture flask (ex. 30×10^6 cells in 10 ml media/25 cm^2 flask). Infect cells with HIV-1 at a moi of 0.005. Incubate cells for 1.5 hours at 37° C. on a rotating rack in a 5% CO2 incubator. Resuspend cells in complete RPMI to give a final concentration of 25,000-cells/175 μl. Add 175 μl of cell mix to wells of 96 well microtiter plate containing 25 μl 8× inhibitors. Add 25,000 uninfected C8166-LTRluc cells/well in 200 μl complete RPMI to last row for background control. Incubate cells at 37° C. in 5% CO2 incubator for 3 days.
(§9) Add 50 μl Steady Glo (luciferase substrate T1/2=5 hours Promega catalogue # E2520) to each well of the 96 well plate. Determine the relative light units (RLU) of luciferase using the BMG LUMlstar Galaxy luminometer. Plates are read from the bottom for 2 seconds per well with a gain of 240.
(§10) The level of inhibition (% inhibition) of each well containing inhibitor was calculated with the following equation: […]
The calculated % inhibition values were then used to determine EC50, slope factor (n) and maximum inhibition (Imax) by the non-linear regression routine NLIN procedure of SAS using the following equation: […]
The results are listed in Table 9 as IC50(nM) and EC50 (nM).
(§11) Table legend: A=>100; B=100-50; C=<50; NT=not tested

[2] = target: T1, HIV-1 RT resistant mutant K103N/Y181C (Human immunodeficiency virus type 1 group M subtype B, UniProt P04585, K690N/Y768C); assay: Reverse transcriptase (RT) enzymatic assay (IC50), PicoGreen fluorescence, resistant mutant; type: biochemical
T1 construct: The reverse transcriptase (RT) enzyme assay has been adapted to a 96-well microtiter plate format
Experimental: Reverse Transcriptase (RT) Assays Enzymatic Assay (IC50)
The enzymatic assay employed is described as follows: The reverse transcriptase (RT) enzyme assay has been adapted to a 96-well microtiter plate format and uses PicoGreen™ as a fluorescent intercalator. More explicitly, the HIV-1 RT enzyme was thawed and appropriately diluted into Tris/HCl 50 mM pH 7.8 containing NaCl 60 mM, MgCl2∘6H2O 2 mM, DTT 6 mM, GSH 2 mM and 0.02% w/v Chaps to give ≈10 nM enzyme. To 10 μL of this enzyme solution was added 10 μL of inhibitor solution (40 μM to […] inhibitor in the same assay buffer as above containing 4% v/v DMSO). The plate was pre-incubated for 15 minutes at room temperature before proceeding to the next step. In this pre-incubation step, the highest and lowest inhibitor concentrations were 20 μM and 1.016 nM respectively and the concentration of DMSO was 2% v/v. Then the enzymatic reaction was initiated by addition of 20 μL of substrate solution. The final reaction mixture contained Tris/HCl 50 mM pH 7.8, NaCl 60 mM, MgCl2∘6H2O 2 mM, DTT 6 mM, GSH 2 mM, CHAPS 0.02% w/v, DMSO 1% v/v, poly rC 45 nM, dG15 4.5 nM, dGTP 3.6 μM, and ≈2.5 nM enzyme. In this incubation step, the highest and lowest inhibitor concentrations were 10 μM and 0.508 nM respectively. After addition of the substrate cocktail, the plate was covered with a plastic seal and incubated for 50 minutes at 37° C. in a dry incubator. The reaction was then quenched by addition of 5 μL of EDTA 0.5 M. The plate was shaken for 30 seconds at medium speed and incubated for 5 minutes at room temperature. Then 160 μL of PicoGreen™ 1:400 dilution from commercial stock (diluted in Tris 20 mM pH 7.5 with EDTA 1 mM) was added and the plate was shaken for 30 seconds and incubated for 10 minutes at room temperature. The plate was then analyzed using a POLARstar Galaxy fluorimeter (BMG Labtechnologies) with λex and λem of 485 nm and 520 nm respectively. […] Each row contained at its extremities a blank and a control well.
as §11

[3] = system: HIV-1 resistant mutant K103N/Y181C in C8166 LTRluc cells; assay: C8166 HIV-1 luciferase assay (EC50), resistant mutant; type: cell-based; conditions: Human immunodeficiency virus 1, C8166, read-out: EC50 K103N/Y181C
Text: as §1, §2, §3, §4, §5, §6
as §7, with “Eleven” for “Serial dilutions of HIV-1 inhibitors compounds are prepared in complete media from 10 mM DMSO stock solutions. Eleven”
as §8, with “Infect cells with HIV-1 at a moi of 0.005.” left out
as §9, §10
The calculated % inhibition values were then used to determine EC50, slope factor (n) and maximum inhibition (Imax) by the non-linear regression routine NLIN procedure of SAS using the following equation:
as §11

[4] = target: T2, HIV-1 RT enzyme (wild type) (Human immunodeficiency virus type 1 group M subtype B, UniProt P04585); assay: Reverse transcriptase (RT) enzymatic assay (IC50), PicoGreen fluorescence, wild type; type: biochemical; conditions: RT enzymatic assay, wild type; read-out: IC50 WT
T2 construct: The reverse transcriptase (RT) enzyme assay has been adapted to a 96-well microtiter plate format
How it was run: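 Enzyme at ≈10 nM in 50 mM Tris/HCl pH 7.8 with 60 mM NaCl, 2 mM MgCl2, 6 mM DTT, 2 mM GSH, 0.02% Chaps; 15 min preincubation with compound at room temperature, then substrate added and run 50 min at 37 °C. EDTA quench; product DNA read by PicoGreen fluorescence.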

Cc1ccc(-n2nnnc2SCC(=O)Nc2ccc(C(=O)O)cc2Br)c(Cl)c1 [Entry 505]
EC50 [1]: < 50 nM
IC50 [2]: > 100 nM
EC50 [3]: > 100 nM
IC50 [4]: < 50 nM

Cc1ccc(-n2nnnc2SCC(=O)Nc2ccc(C(=O)O)cc2[N+](=O)[O-])c(Cl)c1 [Entry 507]
EC50 [1]: < 50 nM
IC50 [2]: > 100 nM
EC50 [3]: > 100 nM
IC50 [4]: < 50 nM

Cc1ccc(-n2nnnc2SCC(=O)Nc2ccc(C(N)=O)cc2[N+](=O)[O-])c(Cl)c1 [Entry 508]
EC50 [1]: < 50 nM
IC50 [2]: 50 to 100 nM
EC50 [3]: < 50 nM
IC50 [4]: < 50 nM

Cc1ccc(-n2nnnc2SCC(=O)Nc2ccc(S(C)(=O)=O)cc2Cl)c(Cl)c1 [Entry 509]
EC50 [1]: < 50 nM
IC50 [2]: > 100 nM
EC50 [3]: > 100 nM
IC50 [4]: < 50 nM

Cc1ccc(-n2nnnc2SCC(=O)Nc2ccc(-c3ccccc3)cc2Cl)c(Cl)c1 [Entry 510]
EC50 [1]: < 50 nM
IC50 [2]: 50 to 100 nM
EC50 [3]: > 100 nM
IC50 [4]: < 50 nM

Cc1ccc(-n2nnnc2SCC(=O)Nc2ccc(-c3ccccc3)cc2C)c(Cl)c1 [Entry 511]
EC50 [1]: < 50 nM
IC50 [2]: > 100 nM
EC50 [3]: > 100 nM
IC50 [4]: < 50 nM

Cc1ccc(-n2nnnc2SCC(=O)Nc2ccc(-c3cccnc3)cc2Cl)c(Cl)c1 [Entry 512]
EC50 [1]: < 50 nM
IC50 [2]: > 100 nM
EC50 [3]: > 100 nM
IC50 [4]: < 50 nM

CC(C)(C)c1ccc(-n2nnnc2SCC(=O)Nc2ccc(CCC(=O)O)cc2Cl)c(Cl)c1 [Entry 601]
EC50 [1]: < 50 nM
IC50 [2]: > 100 nM
EC50 [3]: > 100 nM
IC50 [4]: < 50 nM

CC(C)(C)c1ccc(-n2nnnc2SCC(=O)Nc2ccc([N+](=O)[O-])cc2Cl)c(Cl)c1 [Entry 602]
EC50 [1]: 50 to 100 nM
IC50 [2]: > 100 nM
EC50 [3]: > 100 nM
IC50 [4]: < 50 nM

CC(C)(C)c1ccc(-n2nnnc2SCC(=O)Nc2ccc(S(N)(=O)=O)cc2Cl)c(Cl)c1 [Entry 604]
EC50 [1]: < 50 nM
IC50 [2]: < 50 nM
EC50 [3]: < 50 nM
IC50 [4]: < 50 nM

CC(C)(C)c1ccc(-n2nnnc2SCC(=O)Nc2ccc(S(=O)(=O)c3ccc(Cl)cc3)cc2Cl)c(Cl)c1 [Entry 605]
EC50 [1]: 50 to 100 nM
IC50 [2]: > 100 nM
EC50 [3]: > 100 nM
IC50 [4]: < 50 nM

CC(C)(C)c1ccc(-n2nnnc2SCC(=O)Nc2ccc(S(=O)(=O)c3ccccc3)cc2Cl)c(Cl)c1 [Entry 606]
EC50 [1]: < 50 nM
IC50 [2]: 50 to 100 nM
EC50 [3]: 50 to 100 nM
IC50 [4]: < 50 nM

CC(C)S(=O)(=O)c1ccc(NC(=O)CSc2nnnn2-c2ccc(C(C)(C)C)cc2Cl)c(Cl)c1 [Entry 607]
EC50 [1]: < 50 nM
IC50 [2]: > 100 nM
EC50 [3]: 50 to 100 nM
IC50 [4]: < 50 nM

CC(C)CS(=O)(=O)c1ccc(NC(=O)CSc2nnnn2-c2ccc(C(C)(C)C)cc2Cl)c(Cl)c1 [Entry 608]
EC50 [1]: < 50 nM
IC50 [2]: > 100 nM
EC50 [3]: 50 to 100 nM
IC50 [4]: < 50 nM

CN1CCN(c2ccc(NC(=O)CSc3nnnn3-c3ccc(C(C)(C)C)cc3Cl)c(Cl)c2)CC1 [Entry 610]
EC50 [1]: < 50 nM
IC50 [2]: > 100 nM
EC50 [3]: > 100 nM
IC50 [4]: < 50 nM

CC(C)(C)c1ccc(-n2nnnc2SCC(=O)Nc2ccc(N3CCOCC3)cc2Cl)c(Cl)c1 [Entry 611]
EC50 [1]: < 50 nM
IC50 [2]: > 100 nM
EC50 [3]: > 100 nM
IC50 [4]: < 50 nM

CC(C)(C)c1ccc(-n2nnnc2SCC(=O)Nc2ccc(N3CCCC3)cc2Cl)c(Cl)c1 [Entry 612]
EC50 [1]: 50 to 100 nM
IC50 [2]: > 100 nM
EC50 [3]: > 100 nM
IC50 [4]: < 50 nM

CC(C)(C)c1ccc(-n2nnnc2SCC(=O)Nc2ccc(N3CCCCC3)cc2Cl)c(Cl)c1 [Entry 613]
EC50 [1]: < 50 nM
IC50 [2]: > 100 nM
EC50 [3]: > 100 nM
IC50 [4]: < 50 nM

CC(C)(C)OC(=O)N1CCN(c2ccc(NC(=O)CSc3nnnn3-c3ccc(C(C)(C)C)cc3Cl)c(Cl)c2)CC1 [Entry 614]
EC50 [1]: < 50 nM
IC50 [2]: > 100 nM
EC50 [3]: > 100 nM
IC50 [4]: < 50 nM

CC(C)(C)c1ccc(-n2nnnc2SCC(=O)Nc2ccc(N3CCNCC3)cc2Cl)c(Cl)c1 [Entry 615]
EC50 [1]: < 50 nM
IC50 [2]: > 100 nM
EC50 [3]: > 100 nM
IC50 [4]: < 50 nM

CC(C)(C)c1ccc(-n2nnnc2SCC(=O)Nc2ccc(C(=O)O)cc2Cl)c(Cl)c1 [Entry 616]
EC50 [1]: < 50 nM
IC50 [2]: 50 to 100 nM
EC50 [3]: < 50 nM
IC50 [4]: < 50 nM

CC(C)(C)c1ccc(-n2nnnc2SCC(=O)Nc2ccc(N)cc2Cl)c(Cl)c1 [Entry 617]
EC50 [1]: < 50 nM
IC50 [2]: > 100 nM
EC50 [3]: 50 to 100 nM
IC50 [4]: < 50 nM

Cc1cc(C(F)(F)F)cc(-n2nnnc2SCC(=O)Nc2ccc(S(N)(=O)=O)cc2Cl)c1Cl [Entry 703]
EC50 [1]: < 50 nM
IC50 [2]: 50 to 100 nM
EC50 [3]: < 50 nM
IC50 [4]: < 50 nM

CCN(CC)c1ccc(-n2nnnc2SCC(=O)Nc2ccccc2Cl)c(Cl)c1 [Entry 705]
EC50 [1]: < 50 nM
IC50 [2]: > 100 nM
EC50 [3]: > 100 nM
IC50 [4]: < 50 nM
